From patent US10407467B2, “Polymyxin derivatives and their use in combination therapy together with different antibiotics” (priority 2013, dated 2019)
Bridge positions count the residues as written; N and C are the ends. Square brackets hold non-standard residues; d marks the D form. Peptide text beside a SMILES is read from it. * marks the point of attachment. ξ: configuration not given here. ξβ3hGly(cHex) = NC(CC(=O)*)C1CCCCC1; Thr(3ξ) = CC(O)[C@H](N)C(=O)O; Dab = NCC[C@H](N)C(=O)O

Experiments:
Assay in all cases: MIC, compound in combination with a second agent (broth microdilution)
Type in all cases: cell-based
[1] = test system: Pseudomonas aeruginosa
Method in brief: (§1)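 MIC values express combined concentration of test compound plus partner agent such as rifampicin, mixed at equal mass (1:1 w/w, salt-form weight). Direct colony suspensions at 0.5 McFarland, up to four strains per species, tested in duplicate; >2-fold disagreement invalid, otherwise lower value or mode of repeats reported.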

[2] = test system: Acinetobacter baumannii
Method in brief: as §1

[3] = test system: Escherichia coli
Method in brief: as §1

[4] = test system: Klebsiella pneumoniae
Method in brief: as §1

[5] = 1:1 combination with Aztreonam, total drug concentration
[6] = 1:1 combination with Ciprofloxacin (by row order), total drug concentration
[7] = 1:1 combination with Tigecycline, total drug concentration
[8] = 1:1 combination with Ciprofloxacin, total drug concentration
[9] = 1:1 combination with Vancomycin, total drug concentration
[10] = Ratio of Compound to Rifampicin 1:1, total drug concentration
[11] = Ratio of Compound to Rifampicin 1:3, total drug concentration

CC(C)C[C@@H]1NC(=O)[C@@H](Cc2ccccc2)NC(=O)[C@H](CCN)NC(=O)[C@@H](NC(=O)[C@H](CCN)NC(=O)[C@@H](NC(=O)CC(N)C2CCCCC2)C(C)O)CCNC(=O)[C@H](C(C)O)NC(=O)[C@H](CCN)NC(=O)[C@H](CCN)NC1=O (stereo partly drawn) [Example 10, [3(R,S)-3-Amino-3-cyclohexane-propanoyl]Polymyxin B nonapeptide] ({ξβ3hGly(cHex)}-[Thr(3ξ)][Dab][Dab][Dab][dF]L[Dab][Dab][Thr(3ξ)]; lactam 3-C)
MIC P. aeruginosa ATCC 27853 ([1]; 1:1 (wt:wt) combination with Rifampicin, MIC = total drug concentration, strain ATCC 27853): 1 micrograms/mL
MIC P. aeruginosa ATCC-47 ([1]; 1:1 (wt:wt) combination with Rifampicin, MIC = total drug concentration, strain ATCC-47): 0.25 micrograms/mL
MIC P. aeruginosa CCUG 59626 ([1]; 1:1 (wt:wt) combination with Rifampicin, MIC = total drug concentration, strain CCUG 59626): 0.25 micrograms/mL
MIC P. aeruginosa ATCC 10145 [1, 5]: 1 micrograms/mL
MIC P. aeruginosa ATCC 27853 [1, 6]: 0.125 micrograms/mL
MIC P. aeruginosa CCUG 59626 [1, 6]: 0.5 micrograms/mL
MIC P. aeruginosa CCUG 59626 [1, 7]: 1 micrograms/mL
MIC P. aeruginosa ATCC 10145 ([1]; P. aeruginosa ATCC 10145, 1:1 combination with Azithromycin, total drug concentration): 1 micrograms/mL
MIC P. aeruginosa ATCC 10145 ([1]; P. aeruginosa ATCC 10145, 1:1 combination with Novobiocin, total drug concentration): 0.5 micrograms/mL
MIC A. baumannii ATCC BAA-747 ([2]; 1:1 (wt:wt) combination with Rifampicin, MIC = total drug concentration, strain ATCC BAA-747): 0.25 micrograms/mL
MIC A. baumannii CCUG57249 ([2]; 1:1 (wt:wt) combination with Rifampicin, MIC = total drug concentration, strain CCUG57249): 0.125 micrograms/mL
MIC A. baumannii NCTC 13423 ([2]; 1:1 (wt:wt) combination with Rifampicin, MIC = total drug concentration, strain NCTC 13423): 0.125 micrograms/mL
MIC A. baumannii NCTC 13424 ([2]; 1:1 (wt:wt) combination with Rifampicin, MIC = total drug concentration, strain NCTC 13424): 0.125 micrograms/mL
MIC A. baumannii NCTC 13424 [2, 5]: 1 micrograms/mL
MIC A. baumannii NCTC 13424 [2, 6]: 0.5 micrograms/mL
MIC A. baumannii NCTC 13424 ([2]; A. baumannii NCTC 13424, 1:1 combination with Azithromycin, total drug concentration): 1 micrograms/mL
MIC E. coli ATCC25922 ([3]; 1:1 (wt:wt) combination with Rifampicin, MIC = total drug concentration, strain ATCC25922): 0.125 micrograms/mL
MIC E. coli NCTC9001 ([3]; 1:1 (wt:wt) combination with Rifampicin, MIC = total drug concentration, strain NCTC9001): 0.125 micrograms/mL
MIC E. coli ATCC25922 [3, 5]: 0.125 micrograms/mL
MIC E. coli NCTC 13441 [3, 5]: 2 micrograms/mL
MIC E. coli ATCC25922 [3, 8]: ≤0.06 micrograms/mL
MIC E. coli CCUG 59342 [3, 8]: 1 micrograms/mL
MIC E. coli NCTC9001 [3, 8]: ≤0.06 micrograms/mL
MIC E. coli NCTC9001 [3, 7]: 8 micrograms/mL
MIC E. coli NCTC9001 [3, 9]: 16 microgram/mL
MIC E. coli ATCC25922 ([3]; E. coli ATCC25922, 1:1 combination with Azithromycin, total drug concentration): 0.125 micrograms/mL
MIC E. coli ATCC25922 ([3]; E. coli ATCC25922, 1:1 combination with Fusidic acid, total drug concentration): 1 micrograms/mL
MIC E. coli ATCC25922 ([3]; E. coli ATCC25922, 1:1 combination with Novobiocin, total drug concentration): 0.5 micrograms/mL
MIC E. coli ATCC25922 ([3]; E. coli ATCC25922, 1:1 combination with Oxacillin, total drug concentration): 8 micrograms/mL
MIC E. coli NCTC9001 ([3]; E. coli NCTC9001, 1:1 combination with Meropenem, total drug concentration): 0.5 micrograms/mL
MIC E. coli NCTC 13441 ([3]; E. coli NCTC 13441, 1:1 combination with Azithromycin, total drug concentration): 2 micrograms/mL
MIC E. coli NCTC 13441 ([3]; E. coli NCTC 13441, 1:1 combination with Novobiocin, total drug concentration): 0.5 micrograms/mL
MIC K. pneumoniae ATCC 4352 ([4]; 1:1 (wt:wt) combination with Rifampicin, MIC = total drug concentration, strain ATCC 4352): ≤0.06 micrograms/mL
MIC K. pneumoniae ATCC-BAA-2146 ([4]; 1:1 (wt:wt) combination with Rifampicin, MIC = total drug concentration, strain ATCC-BAA-2146): 0.5 micrograms/mL
MIC K. pneumoniae CCUG-59348 ([4]; 1:1 (wt:wt) combination with Rifampicin, MIC = total drug concentration, strain CCUG-59348): 1 micrograms/mL
MIC K. pneumoniae NCTC 13438 ([4]; 1:1 (wt:wt) combination with Rifampicin, MIC = total drug concentration, strain NCTC 13438): 0.5 micrograms/mL
MIC K. pneumoniae ATCC 4352 [4, 5]: ≤0.06 micrograms/mL
MIC K. pneumoniae CCUG 59349 [4, 5]: 4 micrograms/mL
MIC K. pneumoniae ATCC 4352 [4, 6]: ≤0.06 micrograms/mL
MIC K. pneumoniae ATCC BAA-1706 [4, 6]: 0.25 micrograms/mL
MIC K. pneumoniae CCUG 59348 [4, 8]: 32 micrograms/mL
MIC K. pneumoniae NCTC 13442 [4, 8]: 1 micrograms/mL
MIC K. pneumoniae CCUG 59348 [4, 7]: >32 micrograms/mL
MIC K. pneumoniae NCTC 13442 [4, 7]: 16 micrograms/mL
MIC K. pneumoniae CCUG 59348 [4, 9]: >32 microgram/mL
MIC K. pneumoniae NCTC 13442 [4, 9]: 4 microgram/mL
MIC K. pneumoniae ATCC 4352 ([4]; K. pneumoniae ATCC4352, 1:1 combination with Azithromycin, total drug concentration): 0.125 micrograms/mL
MIC K. pneumoniae ATCC 4352 ([4]; K. pneumoniae ATCC4352, 1:1 combination with Fusidic acid, total drug concentration): 0.5 micrograms/mL
MIC K. pneumoniae ATCC 4352 ([4]; K. pneumoniae ATCC4352, 1:1 combination with Novobiocin, total drug concentration): 0.125 micrograms/mL
MIC K. pneumoniae ATCC BAA-1706 ([4]; K. pneumoniae ATCC BAA-1706, 1:1 combination with Meropenem, total drug concentration): 4 micrograms/mL
MIC K. pneumoniae CCUG 59348 ([4]; K. pneumoniae CCUG 59348, 1:1 combination with Meropenem, total drug concentration): >32 micrograms/mL
MIC K. pneumoniae CCUG 59349 ([4]; K. pneumoniae CCUG 59349, 1:1 combination with Azithromycin, total drug concentration): 4 micrograms/mL
MIC K. pneumoniae CCUG 59349 ([4]; K. pneumoniae CCUG 59349, 1:1 combination with Novobiocin, total drug concentration): 1 micrograms/mL
MIC K. pneumoniae NCTC 13442 ([4]; K. pneumoniae NCTC 13442, 1:1 combination with Meropenem, total drug concentration): 16 micrograms/mL
MIC K. pneumoniae ATCC-BAA-2146 [4, 10]: 0.5 micrograms/mL
MIC K. pneumoniae CCUG-59348 [4, 10]: 1 micrograms/mL
MIC K. pneumoniae NCTC 13438 [4, 10]: 0.5 micrograms/mL
MIC K. pneumoniae ATCC-BAA-2146 [4, 11]: 0.5 micrograms/mL
MIC K. pneumoniae CCUG-59348 [4, 11]: 1 micrograms/mL
MIC K. pneumoniae NCTC 13438 [4, 11]: 0.5 micrograms/mL
